Laboratory results: PMC12171880, “Selectivity and Safety Characterization of a Xanthine–Imidazothiazole Lead Structure: a Novel Tryptophan Hydroxylase Inhibitor of Peripheral Serotonin Synthesis” (ACS Pharmacology & Translational Science, 2025)
“And” between values parts separate entries of the source, which are not always exact repeats. Equal entries are not always repeated.

Legend:
human recombinant TPH1 = molecular target: T1, human recombinant TPH1 (Homo sapiens, UniProt P17752); test: TPH1 enzymatic activity assay (fluorescence, 96-well); format: biochemical
T1 construct: Full-length human TPH1 and TPH2 (UniProt entries P17752 and Q8IWU9); MBP (N); made in house
T1 sequence (P17752 1-444): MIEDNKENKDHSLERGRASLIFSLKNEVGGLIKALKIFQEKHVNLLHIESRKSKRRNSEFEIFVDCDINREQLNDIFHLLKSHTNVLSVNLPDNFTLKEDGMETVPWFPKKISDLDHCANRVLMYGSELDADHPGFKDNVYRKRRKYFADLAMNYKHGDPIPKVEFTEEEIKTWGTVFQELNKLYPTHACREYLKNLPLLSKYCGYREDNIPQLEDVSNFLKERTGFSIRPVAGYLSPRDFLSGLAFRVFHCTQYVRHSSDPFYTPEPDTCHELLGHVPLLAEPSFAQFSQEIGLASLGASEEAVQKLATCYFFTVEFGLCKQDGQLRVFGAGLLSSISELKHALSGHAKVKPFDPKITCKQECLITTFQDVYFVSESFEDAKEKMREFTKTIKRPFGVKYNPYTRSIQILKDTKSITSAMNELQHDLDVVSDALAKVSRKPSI

Sprague–Dawley rats [1] = test: Dose-range finding study in rats, histopathology; format: in vivo, rat
Protocol: (§1) Blood samples were collected as described below. The animal sacrifice (exsanguination) was performed on day 8. During the necropsy, the selected organs were collected, weighed, and shipped to a third-party laboratory for histopathological examination (as described below).
The histological evaluation was performed by AnaPath Services GmbH (Liestal, Switzerland). The samples from the organs–liver, kidney, lung, heart, brain, femur, and ovary–were fixed in 4% neutral-buffered formaldehyde. The testes were fixed by using the Davidson solution. All tissues were trimmed, processed, and embedded in paraffin wax. Samples from the femur were processed and embedded in paraffin after decalcification. Blocks were cut at an approximate thickness of 2–4 μm and stained with hematoxylin and eosin (HE) according to AnaPath Services GmbH SOP’s. The slides were checked under the microscope for a quality check before examination under a light microscope by the study pathologist.

[2] = Toxicokinetic evaluation, plasma exposure in rats (LC-MS); format: in vivo, rat; details: for concentration at 30 min: both sexes, Sprague-Dawley, rat, plasma, po
Protocol: (§2) TPT-004 was formulated in 0.5% (w/v) CMC-Na in water and administered by oral gavage (PO) twice daily (b.i.d.) with a 12 h interval to the treatment groups (3 male and 3 female Sprague–Dawley rats each) for 8 days (15 successive applications). Rats were dosed with 10, 45, and 200 mg/kg, i.e., daily doses of 20, 90, and 400 mg/kg. In addition, a control group was dosed at the same frequency as the vehicle (0.5% CMC-Na).
A blood sample of 100 μL was obtained from each rat by puncturing one of the lateral tail veins under short isoflurane anesthesia. Blood was collected in tubes containing lithium heparin and gently mixed. After centrifugation (10 min at 3000g, 4 °C), plasma was separated and stored at −20 °C until LC-MS analysis. In addition, on day 8, the rats were exsanguinated by cardiac puncture under isoflurane anesthesia. A volume of 100 μL of blood (K3-EDTA) was used for immediate cell blood count, while the rest of the blood was mixed with lithium heparin and centrifuged to generate plasma for clinical chemistry analysis.

mice = details: 14 days repeated oral treatment, 10 or 50 mg/kg BID, previous study; cited from earlier work
human recombinant TPH2 = molecular target: T2, human recombinant TPH2 (Homo sapiens, UniProt Q8IWU9); test: TPH2 enzymatic activity assay (fluorescence, 96-well); format: biochemical
T2 construct: Full-length human TPH1 and TPH2 (UniProt entries P17752 and Q8IWU9); MBP (N); made in house
T2 sequence (Q8IWU9 1-490): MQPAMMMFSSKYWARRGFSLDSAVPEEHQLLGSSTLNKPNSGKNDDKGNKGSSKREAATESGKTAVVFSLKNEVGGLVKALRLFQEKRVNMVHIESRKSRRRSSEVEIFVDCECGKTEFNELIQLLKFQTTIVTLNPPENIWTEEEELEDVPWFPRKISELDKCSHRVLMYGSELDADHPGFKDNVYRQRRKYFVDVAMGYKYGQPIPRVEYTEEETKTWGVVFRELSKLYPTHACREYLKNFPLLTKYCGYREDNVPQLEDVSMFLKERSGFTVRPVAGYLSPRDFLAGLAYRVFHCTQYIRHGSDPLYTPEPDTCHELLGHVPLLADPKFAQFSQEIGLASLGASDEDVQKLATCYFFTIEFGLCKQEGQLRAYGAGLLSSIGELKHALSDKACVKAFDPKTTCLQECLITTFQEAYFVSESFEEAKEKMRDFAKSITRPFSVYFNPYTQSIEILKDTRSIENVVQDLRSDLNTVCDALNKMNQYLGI

Sprague–Dawley rats [3] = test: Dose-range finding study in rats, necropsy and organ weight; format: in vivo, rat; details: for Organ weight, Brain / Organ weight, Heart / Organ weight, Kidney / Organ weight, Liver / Organ weight, Lung / Organ weight, Ovary (n=3 per group) / Organ weight, Spleen / Organ weight, Testis (n=3 per group): day 8
Protocol: as §2, §1

[4] = test system: Sugen–Hypoxia rat model of pulmonary arterial hypertension; details: previous study; cited from earlier work

Which results are given for CCn1c(=O)[nH]c(=O)c2c1nc(Cc1cn3cc(C)sc3n1)n2CC1COC1 [TPT-004]?
Mean TPH1 activity [%] (human recombinant TPH1; 3 nM): 99.51%; IC50 (human recombinant TPH1; 3 nM to 10 μM, 15 μM L-Trp, 20 μM BH4): 33.4 nM; Mean TPH1 activity [%] (human recombinant TPH1; 10 nM): 77.11%; Mean TPH1 activity [%] (human recombinant TPH1; 30 nM): 52.25%; Mean TPH1 activity [%] (human recombinant TPH1; 100 nM): 21.29%; Mean TPH1 activity [%] (human recombinant TPH1; 300 nM): 7.59%; Mean TPH1 activity [%] (human recombinant TPH1; 1 μM): 3.62%; Mean TPH1 activity [%] (human recombinant TPH1; 3 μM): 3.64%; Mean TPH1 activity [%] (human recombinant TPH1; 10 μM): 3.21%; fold higher TPH1 inhibitory potency (lower IC50) compared to LP778902 (human recombinant TPH1; 33.38 vs […]): ~18; IC50 (human recombinant TPH1; supplementary CSV): 33 nM; histopathological findings in heart, spleen, kidney, lung, brain, femur, testis, or ovary (Sprague–Dawley rats [1]; 45 and 200 mg/kg BID): no test-related findings; histopathological finding in the liver (Sprague–Dawley rats [1]; only at doses ≥45 mg/kg BID): multifocal, minimal centrilobular hypertrophy; accumulation in plasma after 15 doses ([2]; 10, 45, 200 mg/kg BID, day 1 vs day 8): absence of an accumulation effect; concentration at 30 min ([2]; 10 mg/kg, day 1, 30 min after the first application, 10 mg/kg PO): 902 ± 247 ng/mL; concentration at 30 min ([2]; 10 mg/kg, day 8, 30 min after the 15th application, 10 mg/kg BID PO): 877 ± 210 ng/mL; concentration at 30 min ([2]; 45 mg/kg, day 1, 30 min after the first application, 45 mg/kg PO): 4720 ± 2420 ng/mL; concentration at 30 min ([2]; 45 mg/kg, day 8, 30 min after the 15th application, 45 mg/kg BID PO): 5040 ± 1790 ng/mL; concentration at 30 min ([2]; 200 mg/kg, day 1, 30 min after the first application, 200 mg/kg PO): 18200 ± 6610 ng/mL; concentration at 30 min ([2]; 200 mg/kg, day 8, 30 min after the 15th application, 200 mg/kg BID PO): 14400 ± 5600 ng/mL; dose linearity correlation in plasma ([2]; day 1): 0.9987; dose linearity correlation in plasma ([2]; day 8): 0.9826; neuropsychiatric effects in behavioral tests (mice): no neuropsychiatric effects were observed; Mean TPH2 activity [%] (human recombinant TPH2; 3 nM): 100.37%; IC50 (human recombinant TPH2; 3 nM to 10 μM, 30 μM L-Trp, 7.5 μM BH4): 21.7 nM; Mean TPH2 activity [%] (human recombinant TPH2; 10 nM): 73.97%; Mean TPH2 activity [%] (human recombinant TPH2; 30 nM): 38.03%; Mean TPH2 activity [%] (human recombinant TPH2; 100 nM): 5.40%; Mean TPH2 activity [%] (human recombinant TPH2; 300 nM): 1.60%; Mean TPH2 activity [%] (human recombinant TPH2; 1 μM): 0.69%; Mean TPH2 activity [%] (human recombinant TPH2; 3 μM): 1.07%; Mean TPH2 activity [%] (human recombinant TPH2; 10 μM): 1.24%; Selectivity ratio TPH2 IC50 : TPH1 IC50 (human recombinant TPH2; calculated from determined IC50 values): 0.65; IC50 (human recombinant TPH2; supplementary CSV): 22 nM; Organ weight, Brain (Sprague–Dawley rats [3]; 10 mg/kg PO BID): 6.8 g/kg body weight; Organ weight, Heart (Sprague–Dawley rats [3]; 10 mg/kg PO BID): 3.5 g/kg body weight; Organ weight, Kidney (Sprague–Dawley rats [3]; 10 mg/kg PO BID): 3.8 g/kg body weight; Organ weight, Liver (Sprague–Dawley rats [3]; 10 mg/kg PO BID): 39.4 g/kg body weight; Organ weight, Lung (Sprague–Dawley rats [3]; 10 mg/kg PO BID): 5.3 g/kg body weight; Organ weight, Ovary (n=3 per group) (Sprague–Dawley rats [3]; 10 mg/kg PO BID): 0.72 g/kg body weight; Organ weight, Spleen (Sprague–Dawley rats [3]; 10 mg/kg PO BID): 2.9 g/kg body weight; Organ weight, Testis (n=3 per group) (Sprague–Dawley rats [3]; 10 mg/kg PO BID): 8.7 g/kg body weight; Organ weight, Brain (Sprague–Dawley rats [3]; 45 mg/kg PO BID): 6.5 g/kg body weight; Organ weight, Heart (Sprague–Dawley rats [3]; 45 mg/kg PO BID): 3.6 g/kg body weight; Organ weight, Kidney (Sprague–Dawley rats [3]; 45 mg/kg PO BID): 3.6 g/kg body weight; Organ weight, Liver (Sprague–Dawley rats [3]; 45 mg/kg PO BID): 42.1 g/kg body weight; Organ weight, Lung (Sprague–Dawley rats [3]; 45 mg/kg PO BID): 5.2 g/kg body weight; Organ weight, Ovary (n=3 per group) (Sprague–Dawley rats [3]; 45 mg/kg PO BID): 0.55 g/kg body weight; Organ weight, Spleen (Sprague–Dawley rats [3]; 45 mg/kg PO BID): 2.8 g/kg body weight; Organ weight, Testis (n=3 per group) (Sprague–Dawley rats [3]; 45 mg/kg PO BID): 8.1 g/kg body weight; Organ weight, Brain (Sprague–Dawley rats [3]; 200 mg/kg PO BID): 6.7 g/kg body weight; Organ weight, Heart (Sprague–Dawley rats [3]; 200 mg/kg PO BID): 3.6 g/kg body weight; Organ weight, Kidney (Sprague–Dawley rats [3]; 200 mg/kg PO BID): 4.0 g/kg body weight; Organ weight, Lung (Sprague–Dawley rats [3]; 200 mg/kg PO BID): 5.2 g/kg body weight; Organ weight, Ovary (n=3 per group) (Sprague–Dawley rats [3]; 200 mg/kg PO BID): 0.65 g/kg body weight; Organ weight, Spleen (Sprague–Dawley rats [3]; 200 mg/kg PO BID): 2.8 g/kg body weight; Organ weight, Testis (n=3 per group) (Sprague–Dawley rats [3]; 200 mg/kg PO BID): 8.4 g/kg body weight; Organ weight, Liver (Sprague–Dawley rats [3]; 200 mg/kg PO BID, vehicle 41.2 ± 2.2, p = 0.0128): 45.2 g/kg body weight and 45.2 ± 1.2 g/kg body weight; gross lesions at necropsy (Sprague–Dawley rats [3]; 10, 45, or 200 mg/kg BID PO, 8 days): No test-item-related gross lesions; weight of the organs, vehicle vs treatment groups, overall (Sprague–Dawley rats [3]; 10, 45 or 200 mg/kg BID PO, 8 days, except liver at 200 mg/kg BID): No significant difference; dose needed to achieve the therapeutic effects [4]: 10 mg/kg BID
